Source: EP0076430A1, “Compositions having antimicrobial activity” (MEDEA RESEARCH S.r.l., priority 1981, dated 1983)
Values after ≈ are worked out from the molar mass of the structure shown.

Experiments:
Format in all cases: cell-based
[1] = tested on: Different bacterial species isolated from patients; assay: Bactericide activity, minimum active concentration on the strains; conditions: Homo sapiens, 24 h
Experimental: (§1) Different bacterial species isolated from patients are employed.
Strains of E. coli, Pseudomonas aeruginosa, indole-positive and negative Proteus, Staphilococcus aureus, Enterobacter, Salmonella sp., Serratia marcescens, B. subtilis and Bacillaceae are investigated.
(§2) Compounds AB5 and AB6 are dissolved in ethanol (ethyl alcohol 95°, C. Erba) and all the subsequent dilutions performed in distilled water. The chlorhexidine is diluted from the commercial product already dissolved in distilled water.
(§3) It is assessed through Dinatech apparatus with "Inoculum 96" head.
(§4) Chemical compounds at established concentra tions are placed in amount of 1 ml in the con tainers, the bacterial inoculum is then added in amount of 0.1 ml (24 hrs culture) and at pre-established times (3,5,10,30,60 and 120 mi nutes), through the head, the mixture compound/ disinfectant agent is transferred in solid medium (agar-heart-brain medium). After incubation at 35°C for 24 hours, the reading is carried out. The tests are repeated in presence of human serum at the concentration of 10%.
For chlorhexidine, the minimum active concentration is 200 p.p.m.

Pseudomonas aeruginosa [2] = assay: Bactericide activity at different contact times; design: key to Bactericide action (growth / no growth) / Bactericide activity (growth / no growth), serum interference test: + = growth; - = no growth; conditions: 200 p.p.m.
Experimental: as §1, §2, §3, §4

Pseudomonas aeruginosa [3] = assay: Minimum inhibitory concentration (MIC), broth dilution; conditions: 24 h
Experimental: as §1, §2
(§5) The broth dilution is employed to assess MIC values for all strains. Sterile microtiter plates with U bottom with 96 wells are employed. 0.1 Ml of liquid medium (tryptose Roche broth) are put in each well, the plates are kept at -20° and, before use, at room temperature.
(§6) The disinfectant agent is put in the wells of the row 2 at a concentration of 4000 mcg/ml (real 2000 mcg/ml) and then with a 100 µl micro- pipette dilutions are performed from row 2 to row 11.
(§7) The row 1 is the control of the medium and the row 12 is the control for the fertility of the medium itself.
(§8) After having performed the dilutions, 0.01 ml of a 24 hrs bacterial broth culture (previously diluted at 10^-4 for Gram-negative strains and 10-2 for Gram-positive ones) are placed in all wells, from the rows 2 to 12. After the inoculation, the plate is hermetical ly sealed with adhesive transparent band and an hole is done with a needle. The plates are kept at 35° for 24 hours and a macroscopic reading is carried out; in case of non uniform reading, taking place only for chlorhexidine, the cultures from the wells are plated on agar-heart-brain medium (Sclavo) through Dinatech apparatus (head "Inoculum 96") and the reading of the growth is carried out in the following 24 hours.

Bacillaceae = assay: as above; conditions: 24 h; strain 1722
Experimental: as §1, §2, §5, §6, §7, §8

Enterobacter = assay: as above; conditions: 24 h, strain 2643
Experimental: as §1, §2, §5, §6, §7, §8

Indole-positive Proteus [4] = assay: as above; conditions: 24 h
Experimental: as §1, §2, §5, §6, §7, §8

Staph. aureus [5] = assay: as above; conditions: Staphylococcus aureus, 24 h; strain 2672
Experimental: as §1, §2, §5, §6, §7, §8

E.coli = assay: as above; conditions: Escherichia coli, 24 h
Experimental: as §1, §2, §5, §6, §7, §8

Salmonella sp. [6] = assay: as above; conditions: 24 h, strain 2482
Experimental: as §1, §2, §5, §6, §7, §8

B. subtilis = assay: Bactericide activity at different contact times; design: key: + = growth; - = no growth; conditions: 200 p.p.m.
Experimental: as §1, §2, §3, §4

Staph. aureus [7] = assay: Bactericide activity at different contact times; design: key: + = growth; - = no growth; conditions: 200 p.p.m.
Experimental: as §1, §2, §3, §4

Salmonella sp. [8] = assay: Bactericide activity at different contact times; design: key: + = growth; - = no growth; conditions: 200 p.p.m.
Experimental: as §1, §2, §3, §4

E. coli = assay: Bactericide activity at different contact times; design: key to Bactericide action (growth / no growth): + = growth; - = no growth; conditions: 200 p.p.m.
Experimental: as §1, §2, §3, §4

Indole-positive Proteus [9] = assay: Bactericide activity at different contact times; design: key to Bactericide action (growth / no growth): + = growth; - = no growth; conditions: 200 p.p.m.
Experimental: as §1, §2, §3, §4

Serratia marcescens = assay: Bactericide activity at different contact times; design: key to Bactericide action (growth / no growth): + = growth; - = no growth; conditions: 200 p.p.m.
Experimental: as §1, §2, §3, §4

N=C(NCCCCCCNC(=N)NC(=N)Nc1ccc(Cl)cc1)NC(=N)Nc1ccc(Cl)cc1 [Chlorhexidine, N,N'-bis-(4-chlorophenyl)-3,12-diimino-2,4,11,13-tetraazatetradecandiimidamide, reference compound]
MBC [1]: 200 µg/mL (≈ 396 µM)
Bactericide action (growth / no growth) (Pseudomonas aeruginosa [2]; contact time 3 min): +
Bactericide action (growth / no growth) (Pseudomonas aeruginosa [2]; contact time 5 min): +
Bactericide action (growth / no growth) (Pseudomonas aeruginosa [2]; contact time 10 min): +
Bactericide action (growth / no growth) (Pseudomonas aeruginosa [2]; contact time 30 min): +
Bactericide action (growth / no growth) (Pseudomonas aeruginosa [2]; contact time 60 min): -
Bactericide action (growth / no growth) (Pseudomonas aeruginosa [2]; contact time 120 min): -
MIC (Pseudomonas aeruginosa [3]; strain 2458): 1000 µg/mL (≈ 1980 µM)
MIC (Pseudomonas aeruginosa [3]; strain 2488): 2000 µg/mL (≈ 3960 µM)
MIC (Pseudomonas aeruginosa [3]; strain 2508): > 2000 µg/mL
MIC (Pseudomonas aeruginosa [3]; strain 2509): 2000 µg/mL (≈ 3960 µM)
MIC (Pseudomonas aeruginosa [3]; strain 2670): > 2000 µg/mL
MIC (Bacillaceae): < 0.98 µg/mL
MIC (Enterobacter): 2000 µg/mL (≈ 3960 µM)
MIC (Indole-positive Proteus [4]; strain 2075): > 1000 µg/mL
MIC (Indole-positive Proteus [4]; strain 2083): 1000 µg/mL (≈ 1980 µM)
MIC (Indole-positive Proteus [4]; strain 2105): > 1000 µg/mL
MIC (Indole-positive Proteus [4]; strain 2410): 2000 µg/mL (≈ 3960 µM)
MIC (Indole-positive Proteus [4]; strain 2447): 2000 µg/mL (≈ 3960 µM)
MIC (Indole-positive Proteus [4]; strain 2674): > 2000 µg/mL
MIC (Staph. aureus [5]): < 0.98 µg/mL
MIC (E.coli; strain 2096): 1000 µg/mL (≈ 1980 µM)
MIC (E.coli; strain 2117): 1000 µg/mL (≈ 1980 µM)
MIC (E.coli; strain 2456): 500 µg/mL (≈ 989 µM)
MIC (E.coli; strain 2568): 2000 µg/mL (≈ 3960 µM)
MIC (Salmonella sp. [6]): 500 µg/mL (≈ 989 µM)
Bactericide action (growth / no growth) (B. subtilis; contact time 3 min): +
Bactericide action (growth / no growth) (B. subtilis; contact time 5 min): +
Bactericide action (growth / no growth) (B. subtilis; contact time 10 min): +
Bactericide action (growth / no growth) (B. subtilis; contact time 30 min): +
Bactericide action (growth / no growth) (B. subtilis; contact time 60 min): -
Bactericide action (growth / no growth) (B. subtilis; contact time 120 min): -
Bactericide action (growth / no growth) (Staph. aureus [7]; contact time 3 min): +
Bactericide action (growth / no growth) (Staph. aureus [7]; contact time 5 min): +
Bactericide action (growth / no growth) (Staph. aureus [7]; contact time 10 min): +
Bactericide action (growth / no growth) (Staph. aureus [7]; contact time 30 min): -
Bactericide action (growth / no growth) (Staph. aureus [7]; contact time 60 min): -
Bactericide action (growth / no growth) (Staph. aureus [7]; contact time 120 min): -
Bactericide action (growth / no growth) (Salmonella sp. [8]; contact time 3 min): +
Bactericide action (growth / no growth) (Salmonella sp. [8]; contact time 5 min): +
Bactericide action (growth / no growth) (Salmonella sp. [8]; contact time 10 min): +
Bactericide action (growth / no growth) (Salmonella sp. [8]; contact time 30 min): +
Bactericide action (growth / no growth) (Salmonella sp. [8]; contact time 60 min): -
Bactericide action (growth / no growth) (Salmonella sp. [8]; contact time 120 min): -
contact time for total bactericide activity (E. coli): 30 to 120 min
Bactericide action (growth / no growth) (E. coli; contact time 3 min): +
Bactericide action (growth / no growth) (E. coli; contact time 5 min): +
Bactericide action (growth / no growth) (E. coli; contact time 10 min): +
Bactericide action (growth / no growth) (E. coli; contact time 30 min): -
Bactericide action (growth / no growth) (E. coli; contact time 60 min): -
Bactericide action (growth / no growth) (E. coli; contact time 120 min): -
Bactericide action (growth / no growth) (Indole-positive Proteus [9]; contact time 3 min): +
Bactericide action (growth / no growth) (Indole-positive Proteus [9]; contact time 5 min): +
Bactericide action (growth / no growth) (Indole-positive Proteus [9]; contact time 10 min): +
Bactericide action (growth / no growth) (Indole-positive Proteus [9]; contact time 30 min): +
Bactericide action (growth / no growth) (Indole-positive Proteus [9]; contact time 60 min): +
Bactericide action (growth / no growth) (Indole-positive Proteus [9]; contact time 120 min): -
Bactericide action (growth / no growth) (Serratia marcescens; contact time 3 min): +
Bactericide action (growth / no growth) (Serratia marcescens; contact time 5 min): +
Bactericide action (growth / no growth) (Serratia marcescens; contact time 10 min): +
Bactericide action (growth / no growth) (Serratia marcescens; contact time 30 min): +
Bactericide action (growth / no growth) (Serratia marcescens; contact time 60 min): -
Bactericide action (growth / no growth) (Serratia marcescens; contact time 120 min): -
